Measurements: patent US20120093947A1, “METHOD OF TREATING REACTIVE AIRWAY DISEASE” (UNITED STATES DEPARTMENT OF VETERANS AFFAIRS, priority 2009, published 2012)
Where two headings read alike, the source gives them in different places.

Key:
Assay type in all cases: biochemical
EPO = molecular target: T1, EPO (Homo sapiens, UniProt P11678); test: Nitration of salbutamol by EPO/H2O2/NO2−, A410; details: 50 μM salbutamol, 5 mM NaNO2, 2 mM H2O2, 0.075 U/mL EPO, pH 7.0, 60 min, ΔA410 versus control
T1 construct: purchased Calbiochem
Experimental: (§1) Spectrophotometric Measurements. Spectra are measured using an Agilent diode array spectrophotometer model 8453 (Agilent Technologies, Inc., Santa Clara, Calif.). Nitration of salbutamol is studied by measuring absorption spectra at designated time points following the start of the reaction. Samples are prepared in 100 mM phosphate buffers (pH 7.0). All buffers contained DTPA (100 μM) or are pretreated with Chelex-100 before use, and measurements are performed at ambient temperature of 20° C. Typically, the reaction is started by the addition of a small aliquot of H2O2 or the desired peroxidase. Time course measurements are carried out following changes in absorbance at 410 nm in 30 second intervals versus absorbance at 800 nm, where none of the compounds absorb.
(§2) We also examine the effect of methimazole on nitration catalyzed by MPO and EPO. 50 μM of salbutamol is reacted with 0.2 U/mL MPO, 5 mM NaNO2, and 2.1 mM H2O2 at pH buffer 7.0 in the presence of 0, 25, 50, and 100 μM methimazole (shown in FIG. 9, section B, traces a-d, respectively). In contrast to inhibition of nitration by LPO system, which was irreversible, inhibitory action of methimazole on MPO/H2O2/NO2^− is transitory.
The extent of nitration is expressed as a change in ΔA410 versus control (dapsone omitted) taken as 100% after 10, 30, and 60 minute reactions for LPO, MPO, and EPO nitrating systems, respectively. […]

MPO [1] = molecular target: T2, MPO (Homo sapiens, UniProt P05164); test: EPR of MNP adducts with radicals from β2-agonists generated by MPO/H2O2; design: Myeloperoxidase (MPO) from human leucocytes (lyophilized powder); purchased Axxora, LLC (San Diego, Calif.); host or cells: human leucocytes (natural source)
Experimental: Formation of free radicals from β2-agonists is studied in samples prepared in 100 mM phosphate buffer (pH 7.0 and 8.0)/DTPA (0.2 mM) (total volume 250 μL) containing MNP, MPO (or LPO) and the agonists. The reaction is initiated by the addition of H2O2 as the last component. In experiments in which H2O2 was generated using glucose (1 mM) and glucose oxidase (3.9 μg/mL), glucose oxidase is added as a last component. The sample is transferred to a flat aqueous EPR cell and recording is started 1 minute after initiation of the reaction. Typically, spectra of MNP adducts are recorded using microwave power 20 mW, modulation amplitude 0.1 mT, receiver gain 2×10^5, conversion time 40.96 ms, time constant 81.92 ms, and scan rate of 10 mT/41.92 s. EPR spectra constitute an average of 5 scans and represent results of typical experiments. Unless stated otherwise, direct EPR measurements (spin traps omitted) of free radicals derived from β2-agonists are performed using conditions similar to those for the detection of MNP adducts. EPR spectra are simulated using WINSIM software developed at NIEHS/NIH (RTP, NC).
The effect of methimazole and dapsone on the formation of free radicals from drugs is studied in phosphate buffers (pH 7.0 and 8.0) containing DTPA (0.2 mM) and MNP (10 mM in dimers). Oxidation is carried out by MPO (0.43 units/mL)/H2O2 (37 μM) and LPO (0.39 μM)/glucose (1 mM)/glucose oxidase (0.8 μg/mL). […]
Table 3, below, summarizes the effects of dapsone and methimazole on EPR spectra of MNP adducts with radicals from fenoterol and terbutaline generated by MPO/H2O2 and LPO/H2O2 systems at a pH of 8.0. Concentrations of MNP spin adducts were calculated as second integrals of the low-field component of the respective spectra and are expressed as % of control samples (no additives). Results equal the means±SE of at least two measurements.
. […] This is consistent with the known inhibitory action of both methimazole and dapsone on LPO activity and only methimazole on MPO activity. Thomas et al. (1994) J. Dent. Res. 73(2):544-55. Results obtained at pH 7.0 qualitatively agree with those at pH 8.0.

MPO [2] = molecular target: T2, MPO; test: Nitration of salbutamol by MPO/H2O2/NO2−, A410; design: Myeloperoxidase (MPO) from human leucocytes (lyophilized powder); purchased Axxora, LLC (San Diego, Calif.); host or cells: human leucocytes (natural source); details: 50 μM salbutamol; for Nitrophenols, (%) MPO: 5.0 mM NaNO2, 5 mM H2O2, 0.2 U/mL MPO, pH 7.0, 30 min, ΔA410 versus control
Experimental: as §1, §2
The extent of nitration is expressed as a change in ΔA410 versus control (dapsone omitted) taken as 100% after 10, 30, and 60 minute reactions for LPO, MPO, and EPO nitrating systems, respectively. Results equal the means±SE of at least two measurements. In the LPO system, 100 μM of salbutamol, 3.4 mM of NaNO2, 4 mM of H2O2, and 65 nM of LPO is used. In the MPO system, 50 μM of salbutamol, 5.0 mM of NaNO2, 5 mM of H2O2, and 0.2 U/mL of MPO is used. In the EPO system, 50 μM of salbutamol, 5 mM of NaNO2, 2 mM of H2O2, and 0.075 U/mL of EPO is used. All reactions were carried out in pH 7.0 phosphate buffer containing DMSO (5% v/v). The term “nitrophenols” includes nitrosalbutamol (N-Sal) and salbutamol-derived nitrophenol (N—ArOH).

T2 sequence (P05164 279-745 limits assumed): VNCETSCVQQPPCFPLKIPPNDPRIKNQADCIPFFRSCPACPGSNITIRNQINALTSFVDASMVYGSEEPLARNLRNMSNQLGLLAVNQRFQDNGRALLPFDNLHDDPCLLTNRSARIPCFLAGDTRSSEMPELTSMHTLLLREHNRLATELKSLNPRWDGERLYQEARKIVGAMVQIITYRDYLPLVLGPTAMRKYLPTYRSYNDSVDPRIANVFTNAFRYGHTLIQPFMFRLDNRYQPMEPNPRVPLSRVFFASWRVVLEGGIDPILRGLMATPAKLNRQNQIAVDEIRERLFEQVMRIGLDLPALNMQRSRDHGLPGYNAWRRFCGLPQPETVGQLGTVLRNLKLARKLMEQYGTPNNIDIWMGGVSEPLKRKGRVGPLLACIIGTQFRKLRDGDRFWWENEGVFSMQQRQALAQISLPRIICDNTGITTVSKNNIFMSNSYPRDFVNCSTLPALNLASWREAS
T2 sequence (P05164 165-273 limits assumed): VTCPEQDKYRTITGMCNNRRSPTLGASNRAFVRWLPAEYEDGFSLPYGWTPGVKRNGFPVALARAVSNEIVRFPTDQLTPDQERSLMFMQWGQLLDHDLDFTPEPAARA
T1 sequence (P11678 251-715 limits assumed): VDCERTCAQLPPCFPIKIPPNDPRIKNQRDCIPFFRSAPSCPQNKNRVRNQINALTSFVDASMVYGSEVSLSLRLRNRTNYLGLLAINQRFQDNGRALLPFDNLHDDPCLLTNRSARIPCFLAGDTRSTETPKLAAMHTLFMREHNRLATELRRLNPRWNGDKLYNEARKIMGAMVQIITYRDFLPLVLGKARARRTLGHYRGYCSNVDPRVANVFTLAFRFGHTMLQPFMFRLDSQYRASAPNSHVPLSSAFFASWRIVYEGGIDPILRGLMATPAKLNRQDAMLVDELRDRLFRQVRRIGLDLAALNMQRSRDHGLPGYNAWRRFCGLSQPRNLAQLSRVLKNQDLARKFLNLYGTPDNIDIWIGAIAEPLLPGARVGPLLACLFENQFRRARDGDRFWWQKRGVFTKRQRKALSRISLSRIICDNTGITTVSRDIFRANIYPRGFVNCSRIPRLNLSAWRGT
T1 sequence (P11678 140-250 limits assumed): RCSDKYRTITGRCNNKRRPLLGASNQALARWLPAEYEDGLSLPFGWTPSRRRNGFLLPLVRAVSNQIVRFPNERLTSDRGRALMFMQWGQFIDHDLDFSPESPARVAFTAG

Nitrophenols, (%) EPO (EPO; dapsone 140 μM)	Nitrophenols, (%) EPO (EPO; dapsone 300 μM)	Effect on MPO activity (formation of radicals from fenoterol and terbutaline, MPO system) (MPO [1]; inhibitor 1 mM, MPO/H2O2)	Nitrophenols, (%) MPO (MPO [2]; dapsone 100 μM)	Nitrophenols, (%) MPO (MPO [2]; dapsone 250 μM)	Nitrophenols, (%) MPO (MPO [2]; dapsone 500 μM)	Concentration of MNP spin adducts, Fenoterol, +MPO + H2O2, % of control (MPO [1]; fenoterol 0.47 mM, inhibitor 0.86 mM, reagent H2O2 37 μM, pH 8.0)	remaining activity at 860 µM (MPO [1]; fenoterol 0.47 mM, inhibitor 0.86 mM, reagent H2O2 37 μM, pH 8.0, read-out: Concentration of MNP spin adducts, Fenoterol, +MPO + H2O2, % of control)	Concentration of MNP spin adducts, Terbutaline, +MPO + H2O2, % of control (MPO [1]; terbutaline 0.47 mM, inhibitor 0.86 mM, reagent H2O2 37 μM, pH 8.0)	remaining activity at 860 µM (MPO [1]; terbutaline 0.47 mM, inhibitor 0.86 mM, reagent H2O2 37 μM, pH 8.0, read-out: Concentration of MNP spin adducts, Terbutaline, +MPO + H2O2, % of control)	Inhibitory action on nitration of salbutamol by MPO/H2O2/NO2− (MPO [2]; methimazole 25, 50, 100 μM, 0.2 U/mL MPO, 5 mM NaNO2, 2.1 mM H2O2, pH 7.0)	SMILES
57%	34 ± 2%	only a minimal effect	66.3 ± 0.6%	56.0 ± 1.3%	44.2 ± 3.0%	–	–	–	–	–	Nc1ccc(S(=O)(=O)c2ccc(N)cc2)cc1 [Dapsone, diamino-diphenyl sulfone]
–	–	–	–	–	–	inhibitory	22.4 ± 0.6%	inhibitory	33.5 ± 3.5%	transitory	Cn1cc[nH]c1=S [Methimazole, 1-methyl-3H-imidazole-2-thione]
